Laboratory results taken from paper PMC9603946, “On the Sensitivity of the Virion Envelope to Lipid Peroxidation” (Microbiology Spectrum, 2022).
Several values for one entry are separate records, joined by “and”; a condition that tells them apart may be missing. Identical values can stand only once. Like-named read-outs stand apart in the source and are kept apart here. Marks after values point to notes of the source that are not given here.

What was measured:
[1] = tested on: HSV-1; assay type: cell-based, HSV-1 KOS; conditions: for drop of viral titers: after 2 h of incubation in atmospheric O2 at 37°C with the substance; for protective effect on infectivity in atmospheric O2: substance alone, without BSA carrier
Experimental: To test other oxidative conditions, an HSV-1 suspension was incubated in atmospheric oxygen at 37°C in DMEM without serum. The virions were incubated with the previously used antioxidants (vitamin E-BSA and vitamin C), vitamin E without the carrier, the BSA carrier alone, vitamin C-BSA, cholesterol (another compound with a conjugated ring and alkyl chains but with limited antioxidant activity), or cholesterol-BSA. A plaquing efficiency assay was then performed with the treated virions.
A time course plaquing efficiency assay was performed with HSV-1 incubated under atmospheric oxidative conditions. Virions (3 × 10^5 PFU) were incubated with vitamin E, vitamin E-BSA, cholesterol, cholesterol-BSA, vitamin C (10 μM final concentration), or the carrier BSA (0.5% final concentration) for 3 h at 37°C in a water bath with atmospheric air (atmospheric O2). Aliquots from each condition were taken every hour and diluted 1:200 to perform plaquing efficiency assays as previously described on the Vero cells.

[2] = Vero cell viability after 2 h exposure to lipoperoxidators (CellTiter-Glo); conditions: African green monkey, Vero cells, CC50, Vero
Experimental: (§1) The cells were washed twice with warm DMEM before a 100 μL lipoperoxidator solution was transferred with a multichannel pipette from the plate containing the drug dilutions in technical triplicates. The cells were incubated with peroxidators for 2 h at 37°C. Then, the medium was removed, and the cells were washed twice with DMEM at 37°C. The plates were cooled down to RT, and the medium was removed. Then, 50 μL phenol red free DMEM and 50 μL CellTiter-glo Luminiscent Cell Viability Assay (Promega, G7571/2/3) were added and mixed in an orbital shaker for 2 min. Afterwards, 80 μL of the mix was transferred onto white 96-well plates and incubated for 10 min at RT for signal stabilization. The luminescence was read in the Glomax Multidetection System (Promega) with an integration time of 0.5 s.
(§2) The means of the technical triplicates were normalized to the means of the vehicle controls, analyzed via nonlinear regression dose responses, and graphed using GraphPad Prism 9.0. Three or four independent biological replicates were performed for each treatment (n = 3 or 4).
(§3) To evaluate the effects of lipid soluble antioxidants, 10 μM vitamin E was loaded onto carrier 1% BSA in the dark for 4.5 h at RT. The cells were washed twice with DMEM at 37°C and preloaded with 100 μL of 10 μM vitamin E in BSA carrier for 3 h at 37°C. The cells were washed twice again before the addition of any lipoperoxidators. Peroxidators were then added to the cells at working concentrations and incubated for 2 h at 37°C. The peroxidation solution was then removed, and the cells were washed twice with DMEM before analyzing viability. To evaluate the effects of a water soluble antioxidant, the cells were treated with 10 μM vitamin C (final concentration) simultaneously with the lipoperoxidators.

[3] = tested on: Vero cells; assay: as above; conditions: Vero
Experimental: as §1, §2, §3

[4] = tested on: Vero cells; assay: Vero cell lipid peroxidation probed with liperfluo; assay type: cell-based, African green monkey; conditions: for EC50: Chlorocebus sabaeus, Vero, Liperfluo probe, read-out: CP50 (the source's name)
Experimental: (§4) The effects of peroxidators have been commonly evaluated against purified lipids and liposomes as a proxy, but they have not been evaluated against virions ([50], [53][–][55]). We instead directly evaluated the extent of virion lipid peroxidation.
To evaluate cell lipid peroxidation using liperfluo, 7.5 × 10^3 Vero cells were seeded into each well of 96-well plates and incubated for 18 h at 37°C in 5% CO2. […] Two hours later, the cells were washed twice, and the fluorescence was evaluated in a TECAN Infinite M200 Pro at 515 nm excitation and 545 nm emission.
(§5) To evaluate the effects of a lipid soluble antioxidant, cells or virions were preloaded with vitamin E-BSA for 3 h at 37°C. Vitamin E-BSA containing medium was removed, and the cells were washed twice with DMEM. Liperfluo (20 or 10 μM for cells or virions, respectively) or C11-Bodipy (1 μM for cells or 0.1 mol% for virions) were preloaded into the cells or virions for 30 min at 37°C.
(§6) To evaluate the effects of water soluble antioxidants, liperfluo (20 μM for cells or 10 μM for virions) or C11-Bodipy (1 μM for cells or 0.1 mol% for virions) were preloaded into the cells or virions for 30 min at 37°C. […] Fluorescence was evaluated in a TECAN Infinite M200 Pro at 515 nm excitation and 545 nm emission for liperfluo or at 550 nm excitation and 580 to 630 nm emission for C11-Bodipy.

[5] = HFF cell viability after 2 h exposure to lipoperoxidators (CellTiter-Glo); conditions: human, HFF cells
Experimental: as §1, §2, §3

[6] = tested on: HFF cells; assay: as above; conditions: HFF
Experimental: as §1, §2, §3

[7] = tested on: HSV-1 virions; assay: microbe, parasite or virus in culture; parameters: species or system HSV-1 KOS; conditions: virions, at higher AAPH concentrations
Experimental: as §4
To evaluate virion peroxidation using liperfluo, 50 μL DMEM that contained 5 × 10^6 PFU of HSV-1 was added to 96-well plates. Virions were then preloaded with 10 μM liperfluo for 20 min at 37°C. […] Fluorescence was evaluated in a TECAN Infinite M200 Pro at 515 nm excitation and 545 nm emission. Medium containing no virus was used as blank.
as §5, §6

[8] = tested on: HSV-1 virions; assay: HSV-1 virion lipid peroxidation probed with C11-Bodipy; parameters: species or system HSV-1 KOS; conditions: C11-Bodipy (Fig. 8)
Experimental: as §4
To evaluate virion lipoperoxidation with C11-Bodipy, 50 μL DMEM containing 5 × 10^6 PFU of HSV-1 was added into each well of 96-well plates. Virions were then preloaded with 0.1 mol % of C11-Bodipy for 30 min at 37°C. […] Fluorescence was evaluated in a TECAN Infinite M200 Pro at 550 nm excitation and 580 to 630 nm emission with the reading peak at 600 nm.
as §5, §6

[9] = tested on: Vero cells; assay: Vero cell lipid peroxidation probed with C11-Bodipy; assay type: cell-based, African green monkey; conditions: C11-Bodipy (Fig. 8)
Experimental: as §4
To evaluate Vero cell lipoperoxidation with C11-Bodipy, 7.5 × 10^3 cells were seeded into each well of 96-well plates and incubated for 18 h at 37°C in 5% CO2 before preloading them with 1 μM C11-Bodipy for 30 min at 37°C. […] Two hours later, the cells were washed twice and lysed with DMSO:isopropanol. Fluorescence was evaluated in a TECAN Infinite M200 Pro at 550 nm excitation and 580 to 630 nm emission with the reading peak at 600 nm.
as §5, §6

[10] = tested on: HSV-1; assay: HSV-1 virion infectivity (plaquing efficiency) on HFF cells after virion pretreatment; conditions: for EC50: Human alphaherpesvirus 1, HFF
Experimental: (§7) The inocula were removed, and the cells were washed and then incubated at 37°C in 5% CO2 until plaques were visible and well-resolved (about 2 days), at which time they were fixed and stained with crystal violet.
(§8) HSV-1 suspensions of 20,000 plaque PFU in 250 μL DMEM were mixed 1:1 with 2-fold serial dilutions of the general peroxidators and were incubated in a water bath for 2 h at 37°C. Next, treated virions were diluted 1:100 before being adsorbed onto cells for 1 h at 37°C. The inocula were removed, and the cells were washed twice with cold DMEM. Infected cells were overlaid with DMEM supplemented with 2% (Vero) or 1% (HFF) methylcellulose and 5% FBS and were incubated at 37°C until plaques were visible and well-resolved, typically in about 2 days. Cell monolayers were fixed and stained with 1% crystal violet in 17% methanol for 18 h at RT. The cells were washed, and the plaques were counted and normalized to those produced by the vehicle treated virions.
(§9) To test the effects of lipid soluble antioxidants on virions, 10 μM vitamin E loaded onto 1% carrier BSA in the dark for 4.5 h at RT was incubated with 10^6 HSV-1 virions for 3 h at 37°C. […] The treated virions were diluted 1:100 before infecting cells. […] The mix was incubated for 2 h at 37°C, diluted 1:100, and used to infect cells. The infectivity of an aliquot of treated virions was tested via a plaque assay.

[11] = tested on: HSV-1; assay: HSV-1 virion infectivity (plaquing efficiency) on Vero cells after virion pretreatment; conditions: for EC50: Human alphaherpesvirus 1, Vero
Experimental: as §7, §8, §9

[12] = many months of exposure to light at room temperature; no reference given; cited from earlier work
[13] = tested on: enveloped viruses; conditions: cited from earlier work

O=C1O[C@H]([C@@H](O)CO)C(O)=C1O [vitamin C, L-ascorbic acid]
drop of viral titers [1]: about 30%

CC(C)(N=NC(C)(C)C(=N)N)C(=N)N.Cl.Cl [AAPH, 2,2′-azobis(2-methylpropionamidine) dihydrochloride]
CC50 at 2 h ([2]; no antioxidant, 2 h at 37°C): 69 mM | CC50 at 2 h ([2]; with vitamin C (10 μM)): 88.4 mM | concentration of maximal inhibition of cell viability [3]: 400000 µM | lowest concentration that reduced cell viability [3]: 12.5 mM and 25 mM | PI, CC50 (antioxidant)/CC50 ([3]; vitamin C): 1.3 | PI, CC50 (antioxidant)/CC50 ([3]; vitamin E): 2.0 ^* | EC50 ([4]; no antioxidant): 89.2 mM | EC50 ([4]; vitamin C): 90.7 mM | EC50 ([4]; vitamin E): 90.7 mM | level of lipoperoxidation detected by liperfluo ([4]; cells, at higher AAPH concentrations): < 2 AU | CC50 at 2 h [5]: 96.7 mM | PI, CC50 (antioxidant)/CC50 ([6]; vitamin C): 1.1 | PI, CC50 (antioxidant)/CC50 ([6]; vitamin E): 0.5 ^* | level of lipoperoxidation detected by liperfluo [7]: < 2 AU | lowest concentration affecting virion peroxidation [8]: 200 mM | lowest concentration affecting cell lipid peroxidation [9]: 50 to 100 mM | concentration giving a loss of infectivity of about 30% ([10]; 2 h at 37°C): 12.5 mM | EC50 ([10]; 2 h, no antioxidant, virions treated 2 h at 37°C): 24.7 mM | EC50 ([10]; virions preloaded with vitamin E (10 μM, BSA carrier)): 31.4 mM | SI, CC50/EC50 ([10]; vitamin C): 1.7 | minimum inhibitory concentration (MIC) that decreased infectivity in the presence of vitamin C ([10]; vitamin C): 100 mM | SI, CC50/EC50 ([10]; vitamin E): 3.1 | EC50 ([11]; 2 h, Vero, no antioxidant, virions treated 2 h at 37°C): 20.8 mM | EC50 ([11]; Vero, virions preloaded with vitamin E (10 μM, BSA carrier)): 31 mM | concentration of maximal inhibition of virion infectivity ([11]; Vero): 100 mM | concentration giving a loss of infectivity of about 30% ([11]; Vero, 2 h at 37°C): 25 mM | SI, CC50/EC50 ([11]; Vero, vitamin C): 0.9 | minimum inhibitory concentration (MIC) that decreased infectivity in the presence of vitamin C ([11]; Vero, vitamin C): 50 mM | SI, CC50/EC50 ([11]; Vero, vitamin E): 4.4 | lowest concentration that decreased virion infectivity in the presence of BSA ([11]; Vero, with BSA): 50 mM | lowest effective concentration on infectivity in the presence of the antioxidants ([11]; Vero, with antioxidants): 25 mM

CC(C)CCC[C@@H](C)[C@H]1CC[C@H]2[C@@H]3CC=C4C[C@@H](O)CC[C@]4(C)[C@H]3CC[C@]12C [cholesterol]
protective effect on infectivity in atmospheric O2 [1]: no protective effects

O=c1[nH]c(=O)n([C@@H]2O[C@H](CO)[C@@H](O)[C@@H]2O)cc1C#Cc1ccc2c3cccc4cccc(c5cccc1c52)c43 [aUY11, 5-(Perylen-3-yl) ethynyl-arabino-uridine]
inactivation by light exposure [12]: not inactivated

C=CCN1C(=O)/C(=C/c2ccc(-c3ccccc3)o2)SC1=S [LJ001]
fold over antiviral concentrations at which not cytotoxic [13]: ≥ 100 fold

Cc1c(C)c2c(c(C)c1O)CC[C@@](C)(CCC[C@H](C)CCC[C@H](C)CCCC(C)C)O2 [vitamin E, alpha tocopherol]
protective effect on infectivity in atmospheric O2 [1]: no protective effects | protection of HSV-1 infectivity against the water soluble peroxidator ([11]; Vero and HFF (Fig. 5B and F), vitamin E preloading): did not protect

bovine serum albumin [BSA]
drop of viral titers [1]: about 30% | protection of virion infectivity ([1]; after 3 h of incubation in atmospheric O2): about 30%
